# Experimental data from US20250367269A1, “KYNURENINE AMINOTRANSFERASE AND PRODUCTS THEREOF FOR THE TREATMENT OF ARTHRITIC DISEASES” (Institut National de Recherche Pour L'Agriculture, …, priority 2022, published 2025).
# Tested on: collagen-antibody induced arthritis
# Assay: collagen-antibody induced arthritis model
# Type: in vivo, C57BL6J male mice
# Conditions: administration in collagen-antibody induced arthritis mouse model; summary statement, no details
# Description: C57BL6J male mice were injected intraperitoneally with a cocktail of arthritogenic anti-type II collagen (2 mg/mouse) at day 0. At day 3, mice received an injection of lipopolysaccharide from bacterial cells walls of E. coli 055: B5. The severity of arthritis was evaluated every other day on each paw with a score from 0 to 4, for a maximal score of 16 by animal (0=normal joint, 1=moderate redness and slight swelling or swelling of one or two digits, 2=moderate redness and moderate paw swelling or swelling more than three digits, 3=redness and swelling from tarsal joints to metatarsal joints, 4=severe redness and severe swelling of the entire paw). Hindpaw swelling was measured at the same time by plethysmography. Paw volume determined prior to disease induction was used as the baseline. The development of arthritis was analyzed by histological assessment. Hindpaws were dissected then fixed in 4% formalin (Labonord). Hindpaws were further decalcified in 10% EDTA for 1 month and embedded in paraffin blocks. Five μm-thick tissue sections were cut and two stainings were performed, hematoxylin, eosin and toluidine blue. Histological examination was carried out blindly by three independent observers. Synovium from ankle joint was graded on a scale of 0 to 3 (with 0=normal and 3=major changes) for synovial hyperplasia (width of lining layer) and tissue cell infiltration. […]
smiles,measurement,value
O=C(O)c1cc(O)c2cccc(O)c2n1 [xanthurenic acid],arthritis severity,reduces arthritis severity
